Results: US6512000B1, “Aminocarbonyl-substituted benzimidazoles having tryptase-inhibitory activity” (Boehringer Ingelheim Pharma KG, priority 1999, dated 2003)

Target: T1, rh beta tryptase (Homo sapiens, UniProt P20231)
T1 construct: purchased Promega
Assay: Tryptase inhibition test (cleavage of N-p-tosyl-Gly-Pro-Lys-para-nitroaniline, p-nitroaniline measured at 405 nm)
Assay type: biochemical
Details: pH 7.4, 37° C.; for inhibition at 10 µM: inhibition of rh beta tryptase at 10 μM test substance, substrate N-p-tosyl-Gly-Pro-Lys-para-nitroaniline 0.6 mM, 5 minutes; for IC50: concentration at which 50% of the tryptase enzyme activity is inhibited, substrate 0.6 mM
Method in brief: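 Screening at 10 μM gives percent inhibition, with IC50 derived for compounds above 70% inhibition. Enzyme: rh beta tryptase, 0.91 U/ml, pH 7.4 Tris HCl (100 mM), 5 mM Ca, 100 mg/ml heparin. After 5 min compound pre-incubation, 0.6 mM pNA substrate cleaved 5 min at 37 °C, monitored at 405 nm.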

T1 sequence (P20231 31-275): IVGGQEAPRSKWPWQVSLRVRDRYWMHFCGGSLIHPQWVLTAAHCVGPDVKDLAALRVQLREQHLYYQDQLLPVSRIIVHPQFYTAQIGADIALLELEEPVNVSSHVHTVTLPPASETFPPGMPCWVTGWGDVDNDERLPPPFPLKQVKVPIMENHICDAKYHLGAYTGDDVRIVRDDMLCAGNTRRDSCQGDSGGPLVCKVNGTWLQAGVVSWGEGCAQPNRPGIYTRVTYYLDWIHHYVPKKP

Row | inhibition at 10 µM [%] | IC50 [nM] | Structure (SMILES)
1 | 53 | – | N=C(N)c1ccc(CCc2nc3cc(C(=O)N(Cc4ccc(CN)cc4)Cc4cccc(C(F)(F)F)c4)ccc3n2CCc2ccccc2)cc1 [Example 203, 2-[2-(4-amidinophenyl)ethyl]-1-(2-phenylethyl)-benzimidazol-5-yl-carboxylic acid-N-[4-(amino-methyl)-benzyl]-N-(3-trifluoromethylbenzyl)-amide]
2 | 54 | 335 | CCOCCCn1c(CCc2ccc(C(=N)N)cc2)nc2cc(C(=O)N(Cc3ccc(CN)cc3)Cc3ccccc3F)ccc21 [Example 214, 2-[2-(4-amidinophenyl)ethyl]-1-(3-ethoxypropyl)-benzimidazol-5-yl-carboxylic acid-N-[4-(amino-methyl)-benzyl]-N-(2-fluorobenzyl)-amide]
3 | 65 | – | N=C(N)c1ccc(CCc2nc3cc(C(=O)N(Cc4ccc(CN)cc4)Cc4ccccc4F)ccc3n2CCCNC(=O)Cc2ccccc2)cc1 [Example 216, 2-[2-(4-amidinophenyl)ethyl]-1-[3-(benzylcarbonylamino)-propyl]-benzimidazol-5-yl-carboxylic acid-N-[4-(amino-methyl)-benzyl]-N-(2-fluorobenzyl)-amide]
4 | 51 | – | N=C(N)c1ccc(CCc2nc3cc(C(=O)N(Cc4ccc(CN)cc4)Cc4ccccc4F)ccc3n2CCc2ccccc2)cc1 [Example 219, 2-[2-(4-amidinophenyl)ethyl]-1-(2-phenylethyl)-benzimidazol-5-yl-carboxylic acid-N-[4-(amino-methyl)-benzyl]-N-(2-fluorobenzyl)-amide]
5 | 61 | 153 | CCOCCCn1c(CCc2ccc(C(=N)N)cc2)nc2cc(C(=O)N(Cc3ccc(CN)cc3)Cc3ccc4ccccc4c3)ccc21 [Example 230, 2-[2-(4-amidinophenyl)ethyl]-1-(3-ethoxypropyl)-benzimidazol-5-yl-carboxylic acid-N-[4-(amino-methyl)-benzyl]-N-(2-naphthylmethyl)-amide]
6 | 54 | – | CCCCN(CCCC)CCCn1c(CCc2ccc(C(=N)N)cc2)nc2cc(C(=O)N(Cc3ccc(CN)cc3)Cc3ccc4ccccc4c3)ccc21 [Example 231, 2-[2-(4-amidinophenyl)ethyl]-1-(3-di-n-butylaminopropyl)-benzimidazol-5-yl-carboxylic acid-N-[4-(amino-methyl)-benzyl]-N-(2-naphthylmethyl)-amide]
7 | 58 | – | N=C(N)c1ccc(CCc2nc3cc(C(=O)N(Cc4ccc(CN)cc4)Cc4ccc5ccccc5c4)ccc3n2CCCNC(=O)Cc2ccccc2)cc1 [Example 232, 2-[2-(4-amidinophenyl)ethyl]-1-[3-(benzylcarbonylamino)-propyl]-benzimidazol-5-yl-carboxylic acid-N-[4-(amino-methyl)-benzyl]-N-(2-naphthylmethyl)-amide]
8 | 53 | – | N=C(N)c1ccc(CCc2nc3cc(C(=O)N(Cc4ccc(CN)cc4)Cc4ccc5ccccc5c4)ccc3n2CCC2CCCCC2)cc1 [Example 233, 2-[2-(4-amidinophenyl)ethyl]-1-(2-cyclohexylethyl)-benzimidazol-5-yl-carboxylic acid-N-[4-(amino-methyl)-benzyl]-N-(2-naphthylmethyl)-amide]
9 | – | 760 | N=C(N)c1ccc(CCc2nc3cc(C(=O)N(Cc4ccc(CN)cc4)Cc4ccc5ccccc5c4)ccc3n2CC2CC2)cc1 [Example 234, 2-[2-(4-amidinophenyl)ethyl]-1-cyclopropylmethyl-benzimidazol-5-yl-carboxylic acid-N-[4-(amino-methyl)-benzyl]-N-(2-naphthylmethyl)-amide]
10 | 52 | – | N=C(N)c1ccc(CCc2nc3cc(C(=O)N(Cc4ccc(CN)cc4)Cc4ccc5ccccc5c4)ccc3n2CCc2ccccc2)cc1 [Example 235, 2-[2-(4-amidinophenyl)ethyl]-1-(2-phenylethyl)-benzimidazol-5-yl-carboxylic acid-N-[4-(amino-methyl)-benzyl]-N-(2-naphthylmethyl)-amide]
11 | 52 | – | Cc1ccc(Cn2c(CCc3ccc(C(=N)N)cc3)nc3cc(C(=O)N(Cc4ccc(CN)cc4)Cc4ccc5ccccc5c4)ccc32)cc1 [Example 237, 2-[2-(4-amidinophenyl)ethyl]-1-(4-methylbenzyl)-benzimidazol-5-yl-carboxylic acid-N-[4-(amino-methyl)-benzyl]-N-(2-naphthylmethyl)-amide]
12 | 69 | – | N=C(N)c1ccc(CCc2nc3cc(C(=O)N(Cc4ccc(CN)cc4)Cc4ccc5ccccc5c4)ccc3n2CCCN2CCOCC2)cc1 [Example 241, 2-[2-(4-amidinophenyl)ethyl]-1-[3-(morpholin-4-yl)-propyl]-benzimidazol-5-yl-carboxylic acid-N-[4-(amino-methyl)-benzyl]-N-(2-naphthylmethyl)-amide]
13 | 63 | – | N=C(N)c1ccc(CCc2nc3cc(C(=O)N(Cc4ccc(CN)cc4)Cc4ccc5ccccc5c4)ccc3n2CC2CCCO2)cc1 (stereo not shown) [Example 242, 2-[2-(4-amidinophenyl)ethyl]-1-(tetrahydrofuran-2-yl-methyl)-benzimidazol-5-yl-carboxylic acid-N-[4-(amino-methyl)-benzyl]-N-(2-naphthylmethyl)-amide]
14 | 59 | – | CCCCN(CCN)C(=O)c1ccc2c(c1)nc(CCc1ccc(C(=N)N)cc1)n2CCCNC(=O)Cc1ccccc1 [Example 280, 2-[2-(4-amidinophenyl)ethyl]-1-[3-(benzylcarbonylamino)-propyl]-benzimidazol-5-yl-carboxylic acid-N-(2-aminoethyl)-N-n-butyl-amide]

The remaining lines, values behind:

Row | Structure (SMILES) | inhibition at 10 µM [%] | IC50 [nM]
15 | N=C(N)c1ccc(CCc2nc3cc(C(=O)N(Cc4ccc(CN)cc4)Cc4cccc(C(F)(F)F)c4)ccc3n2CCCN2CCOCC2)cc1 [Example 209, 2-[2-(4-amidinophenyl)ethyl]-1-[3-(morpholin-4-yl)-propyl]-benzimidazol-5-yl-carboxylic acid-N-[4-(amino-methyl)-benzyl]-N-(3-trifluoromethylbenzyl)-amide] | 61 | –
16 | N=C(N)c1ccc(CCc2nc3cc(C(=O)N(Cc4ccc(CN)cc4)Cc4cccc(C(F)(F)F)c4)ccc3n2CC2CCCO2)cc1 (stereo not shown) [Example 210, 2-[2-(4-amidinophenyl)ethyl]-1 (tetrahydrofuran-2-yl-methyl)-benzimidazol-5-yl-carboxylic acid-N-[4-(amino-methyl)-benzyl]-N-(3-trifluoromethylbenzyl)-amide] | 59 | –
17 | N=C(N)c1ccc(CCc2nc3cc(C(=O)N(Cc4ccc(CN)cc4)Cc4ccccc4F)ccc3n2CC2CCCO2)cc1 (stereo not shown) [Example 226, 2-[2-(4-amidinophenyl)ethyl]-1-(tetrahydrofuran-2-yl-methyl)-benzimidazol-5-yl-carboxylic acid-N-[4-(amino-methyl)-benzyl]-N-(2-fluorobenzyl)-amide] | 64 | –
18 | CCOCCCn1c(CCc2ccc(C(=N)N)cc2)nc2cc(C(=O)N(CCN)Cc3cccc(OC)c3)ccc21 [Example 262, 2-[2-(4-amidinophenyl)ethyl]-1-(3-ethoxypropyl)-benzimidazol-5-yl-carboxylic acid-N-(2-aminoethyl)-N-(3-methoxybenzyl)-amide] | 58 | 284
19 | COc1cccc(CN(CCN)C(=O)c2ccc3c(c2)nc(CCc2ccc(C(=N)N)cc2)n3CC2CC2)c1 [Example 266, 2-[2-(4-amidinophenyl)ethyl]-1-cyclopropylmethyl-benzimidazol-5-yl-carboxylic acid-N-(2-aminoethyl)-N-(3-methoxybenzyl)-amide] | 61 | 641
20 | COc1cccc(CN(CCN)C(=O)c2ccc3c(c2)nc(CCc2ccc(C(=N)N)cc2)n3CC2CCCO2)c1 (stereo not shown) [Example 274, 2-[2-(4-amidinophenyl)ethyl]-1-(tetrahydrofuran-2-yl-methyl)-benzimidazol-5-yl-carboxylic acid-N-(2-aminoethyl)-N-(3-methoxybenzyl)-amide] | 57 | –
21 | CCCCN(CCN)C(=O)c1ccc2c(c1)nc(CCc1ccc(C(=N)N)cc1)n2CCCOCC [Example 278, 2-[2-(4-amidinophenyl)ethyl]-1-(3-ethoxypropyl)-benzimidazol-5-yl-carboxylic acid-N-(2-aminoethyl)-N n-butyl-amide] | 83 | 251
22 | CCCCN(CCCC)CCCn1c(CCc2ccc(C(=N)N)cc2)nc2cc(C(=O)N(CCN)CCCC)ccc21 [Example 279, 2-[2-(4-amidinophenyl)ethyl]-1-(3-di-n-butylaminopropyl)-benzimidazol-5-yl-carboxylic acid-N-(2-aminoethyl)-N-n-butyl-amide] | 60 | –
23 | CCCCN(CCN)C(=O)c1ccc2c(c1)nc(CCc1ccc(C(=N)N)cc1)n2CC1CC1 [Example 282, 2-[2-(4-amidinophenyl)ethyl]-1-cyclopropylmethyl-benzimidazol-5-yl-carboxylic acid-N-(2-aminoethyl)-N-n-butyl-amide] | 65 | –
24 | CCCCN(CCN)C(=O)c1ccc2c(c1)nc(CCc1ccc(C(=N)N)cc1)n2CCc1ccccc1 [Example 283, 2-[2-(4-amidinophenyl)ethyl)-1-(2-phenylethyl)-benzimidazol-5-yl-carboxylic acid-N-(2-aminoethyl)-N-n-butyl-amide] | 59 | –
25 | CCCCN(CCN)C(=O)c1ccc2c(c1)nc(CCc1ccc(C(=N)N)cc1)n2CCc1ccc(Cl)cc1 [Example 284, 2-[2-(4-amidinophenyl)ethyl]-1-[2-(4-chlorophenyl)ethyl]-benzimidazol-5-yl-carboxylic acid-N-(2-aminoethyl)-N-n-butyl-amide] | 55 | –
26 | CCCCN(CCN)C(=O)c1ccc2c(c1)nc(CCc1ccc(C(=N)N)cc1)n2CCCN1CCN(c2ccccc2C)CC1 [Example 288, 2-[2-(4-amidinophenyl)ethyl]-1-{3-[4-(2-methylphenyl)-piperazin-1-yl]-propyl}-benzimidazol-5-yl-carboxylic acid-N-(2-aminoethyl)-N-n-butyl-amide] | 65 | –
